Patent US8735414B2 (priority 2009, dated 2014)

Experiments:
[1] = tested on: bicistronic HCV replicon (replicon RNA, GenBank Accession No. AJ242654); assay: HCV Replicon Assay; assay type: cell-based; settings: Hepatitis C virus, 72 h, read-out: Replicon IC50

## CC(C)n1c(-c2ccc(S(=O)(=O)NC3CCC3)cn2)c(C#N)c2ccc(OC(F)F)cc21 [compound 2, 6-[3-cyano-6-(difluoromethoxy)-1-(propan-2-yl)-1H-indol-2-yl]-N-cyclobutylpyridine-3-sulfonamide]
other
  melting point: 130 to 132 °C
[1]
  IC50: < 500 nM

## CC(C)NS(=O)(=O)c1ccc(-c2c(C#N)c3ccc(OC4CCC4)cc3n2C2CCC2)cn1 [compound 4, 5-[3-cyano-1-cyclobutyl-6-(cyclobutyloxy)-1H-indol-2-yl]-N-(propan-2-yl)pyridine-2-sulfonamide]
other
  melting point: 178 to 180 °C
[1]
  IC50: 2000 to 5000 nM

## CC(C)NS(=O)(=O)c1ccc(-c2c(C#N)c3cc(F)ccc3n2CC2CC2)nc1 [compound 6, 6-[3-cyano-1-(cyclopropylmethyl)-5-fluoro-1H-indol-2-yl]-N-(propan-2-yl)pyridine-3-sulfonamide]
other
  melting point: 160 to 162 °C
[1]
  IC50: < 500 nM

## CC(C)(C)NS(=O)(=O)c1ccc(-c2c(C#N)c3cc(F)ccc3n2C2CCC2)nc1 [compound 9, N-tert-butyl-6-(3-cyano-1-cyclobutyl-5-fluoro-1H-indol-2-yl)pyridine-3-sulfonamide]
other
  melting point: 181 to 185 °C
[1]
  IC50: < 500 nM

## CC(C)NS(=O)(=O)c1ccc(-c2c(C#N)c3ccc(OC(F)(F)F)cc3n2CC2CC2)nc1 [compound 11, 6-[3-cyano-1-(cyclopropylmethyl)-6-(trifluoromethoxy)-1H-indol-2-yl]-N-(propan-2-yl)pyridine-3-sulfonamide]
other
  melting point: 203 to 205 °C
[1]
  IC50: 500 to 2000 nM

## CC(C)NS(=O)(=O)c1ccc(-c2c(C#N)c3ccc(OC(F)(F)F)cc3n2C(C)C)nc1 [compound 12, 6-[3-cyano-1-(propan-2-yl)-6-(trifluoromethoxy)-1H-indol-2-yl]-N-(propan-2-yl)pyridine-3-sulfonamide]
other
  melting point: 160 to 162 °C
[1]
  IC50: 500 to 2000 nM

## CC(C)(C)NS(=O)(=O)c1ccc(-c2c(C#N)c3cc(Cl)ccc3n2C2CCC2)nc1 [compound 15, N-tert-butyl-6-(5-chloro-3-cyano-1-cyclobutyl-1H-indol-2-yl)pyridine-3-sulfonamide]
other
  melting point: 195 to 197 °C
[1]
  IC50: 500 to 2000 nM

## CC(C)(C)NS(=O)(=O)c1ccc(-c2c(C#N)c3ccc(OC(F)(F)F)cc3n2C2CCCC2)nc1 [compound 18, N-tert-butyl-6-[3-cyano-1-cyclopentyl-6-(trifluoromethoxy)-1H-indol-2-yl]pyridine-3-sulfonamide]
other
  melting point: 182 to 184 °C
[1]
  IC50: 500 to 2000 nM

## CC(C)(C)NS(=O)(=O)c1ccc(-c2c(C#N)c3cc(OC(F)F)ccc3n2C2CCC2)nc1 [compound 20, N-tert-butyl-6-[3-cyano-1-cyclobutyl-5-(difluoromethoxy)-1H-indol-2-yl]pyridine-3-sulfonamide]
other
  melting point: 167 to 170 °C
[1]
  IC50: 500 to 2000 nM

## CC(C)NS(=O)(=O)c1ccc(-c2c(C#N)c3cc(OC(F)F)ccc3n2C2CCCC2)nc1 [compound 21, 6-[3-cyano-1-cyclopentyl-5-(difluoromethoxy)-1H-indol-2-yl]-N-(propan-2-yl)pyridine-3-sulfonamide]
other
  melting point: 177 to 179 °C
[1]
  IC50: < 500 nM

## CC(C)Sc1ccc2c(C#N)c(-c3ccc(S(=O)(=O)N4CCCCC4)cn3)n(C3CCC3)c2c1 [compound 22, 1-cyclobutyl-2-[5-(piperidin-1-ylsulfonyl)pyridin-2-yl]-6-(propan-2-ylsulfanyl)-1H-indole-3-carbonitrile]
other
  melting point: 169 to 171 °C
[1]
  IC50: 500 to 2000 nM

## N#Cc1c(-c2ccc(S(=O)(=O)NC(CF)CF)cn2)n(C2CCC2)c2cc(OC(F)(F)F)ccc12 [compound 24, 6-[3-cyano-1-cyclobutyl-6-(trifluoromethoxy)-1H-indol-2-yl]-N-(1,3-difluoropropan-2-yl)pyridine-3-sulfonamide]
other
  melting point: 158 to 160 °C
[1]
  IC50: < 500 nM

## N#Cc1c(-c2ccc(S(=O)(=O)NC(CF)CF)cn2)n(C2CCC2)c2ccc(OC(F)(F)F)cc12 [compound 25, 6-[3-cyano-1-cyclobutyl-5-(trifluoromethoxy)-1H-indol-2-yl]-N-(1,3-difluoropropan-2-yl)pyridine-3-sulfonamide]
other
  melting point: 179 to 182 °C
[1]
  IC50: 500 to 2000 nM

## N#Cc1c(-c2ccc(S(=O)(=O)NC(CF)CF)cn2)n(C2CCC2)c2ccc(F)cc12 [compound 29, 6-(3-cyano-1-cyclobutyl-5-fluoro-1H-indol-2-yl)-N-(1,3-difluoropropan-2-yl)pyridine-3-sulfonamide]
other
  melting point: 206 to 208 °C
[1]
  IC50: < 500 nM

## N#Cc1c(-c2ccc(S(=O)(=O)NC(CF)CF)cn2)n(C2CCC2)c2ccc(Cl)cc12 [compound 30, 6-(5-chloro-3-cyano-1-cyclobutyl-1H-indol-2-yl)-N-(1,3-difluoropropan-2-yl)pyridine-3-sulfonamide]
other
  melting point: 182 to 186 °C
[1]
  IC50: < 500 nM

## N#Cc1c(-c2ccc(S(=O)(=O)NC(CF)CF)cn2)n(C2CCC2)c2ccc(OC(F)F)cc12 [compound 32, 6-[3-cyano-1-cyclobutyl-5-(difluoromethoxy)-1H-indol-2-yl]-N-(1,3-difluoropropan-2-yl)pyridine-3-sulfonamide]
other
  melting point: 166 to 172 °C
[1]
  IC50: < 500 nM

## N#Cc1c(-c2ccc(S(=O)(=O)NC(CF)CF)cn2)n(C2CCCC2)c2ccc(OC(F)F)cc12 [compound 33, 6-[3-cyano-1-cyclopentyl-5-(difluoromethoxy)-1H-indol-2-yl]-N-(1,3-difluoropropan-2-yl)pyridine-3-sulfonamide]
other
  melting point: 172 to 175 °C
[1]
  IC50: < 500 nM

## N#Cc1c(-c2ccc(S(=O)(=O)NC(CF)CF)cn2)n(C2CCCC2)c2ccc(OC(F)(F)F)cc12 [compound 34, 6-[3-cyano-1-cyclopentyl-5-(trifluoromethoxy)-1H-indol-2-yl]-N-(1,3-difluoropropan-2-yl)pyridine-3-sulfonamide]
other
  melting point: 159 to 160 °C
[1]
  IC50: < 500 nM

## CC(C)n1c(-c2ccc(S(=O)(=O)NC(CF)CF)cn2)c(C#N)c2ccc(OC(F)F)cc21 [compound 36, 6-[3-cyano-6-(difluoromethoxy)-1-(propan-2-yl)-1H-indol-2-yl]-N-(1,3-difluoropropan-2-yl)pyridine-3-sulfonamide]
other
  melting point: 142 to 145 °C
[1]
  IC50: < 500 nM

## C[C@@H](NS(=O)(=O)c1ccc(-c2c(C#N)c3ccc(OC(F)F)cc3n2C2CCC2)nc1)C(F)(F)F [compound 196, 6-[3-cyano-1-cyclobutyl-6-(difluoromethoxy)-1H-indol-2-yl]-N-[(2R)-1,1,1-trifluoropropan-2-yl]pyridine-3-sulfonamide]
other
  melting point: 159 to 164 °C

## C[C@@H](NS(=O)(=O)c1ccc(-c2c(C#N)c3ccc(C4CC4)cc3n2C2CCC2)nc1)C(F)(F)F [compound 212, 6-(3-cyano-1-cyclobutyl-6-cyclopropyl-1H-indol-2-yl)-N-[(2R)-1,1,1-trifluoropropan-2-yl]pyridine-3-sulfonamide]
other
  melting point: 192 to 196 °C

## N#Cc1c(-c2ccc(S(=O)(=O)NC(CO)CO)cn2)n(C2CCC2)c2cc(OC(F)F)ccc12 [compound 239, 6-[3-cyano-1-cyclobutyl-6-(difluoromethoxy)-1H-indol-2-yl]-N-(1,3-dihydroxypropan-2-yl)pyridine-3-sulfonamide]
other
  melting point: 132 to 135 °C

## CC(C)NS(=O)(=O)c1ccc(-c2c(C#N)c3ccc(C4CCC4)cc3n2C2CCC2)nc1 [compound 266, 6-(3-cyano-1,6-dicyclobutyl-1H-indol-2-yl)-N-(propan-2-yl)pyridine-3-sulfonamide]
other
  melting point: 178 to 180 °C

## C[C@H](NS(=O)(=O)c1ccc(-c2c(C#N)c3ccc(OC(F)F)cc3n2C2CCC2)nc1)C(F)(F)F [compound 300, 6-[3-cyano-1-cyclobutyl-6-(difluoromethoxy)-1H-indol-2-yl]-N-[(2S)-1,1,1-trifluoropropan-2-yl]pyridine-3-sulfonamide]
other
  melting point: 159 to 162 °C

## CC(C#N)NS(=O)(=O)c1ccc(-c2c(C#N)c3ccc(OC(F)F)cc3n2C2CCC2)nc1 (centres unmarked) [compound 301, 6-[3-cyano-1-cyclobutyl-6-(difluoromethoxy)-1H-indol-2-yl]-N-(1-cyanoethyl)pyridine-3-sulfonamide]
other
  melting point: 188 to 190 °C

## CC(C)NS(=O)(=O)c1ccc(-c2c(C#N)c3ccc(C(F)F)cc3n2C2CCC2)nc1 [compound 333, 6-[3-cyano-1-cyclobutyl-6-(difluoromethyl)-1H-indol-2-yl]-N-(propan-2-yl)pyridine-3-sulfonamide]
other
  melting point: 212 to 220 °C

## C[C@H](NS(=O)(=O)c1ccc(-c2c(C#N)c3ccc(C4CC4)cc3n2C2CCC2)nc1)C(F)(F)F [compound 369, 6-(3-cyano-1-cyclobutyl-6-cyclopropyl-1H-indol-2-yl)-N-[(2S)-1,1,1-trifluoropropan-2-yl]pyridine-3-sulfonamide]
other
  melting point: 191 to 197 °C

## CC(C)(NS(=O)(=O)c1ccc(-c2c(C#N)c3ccc(OC(F)F)cc3n2C2CCC2)nc1)C(F)(F)F [compound 479, 6-[3-cyano-1-cyclobutyl-6-(difluoromethoxy)-1H-indol-2-yl]-N-(1,1,1-trifluoro-2-methylpropan-2-yl)pyridine-3-sulfonamide]
other
  melting point: 165 to 171 °C

## CC(C)(C)NS(=O)(=O)c1ccc(-c2c(C#N)c3ccc(OC(F)F)cc3n2C2CCC2)nc1 [compound 543, N-tert-butyl-6-[3-cyano-1-cyclobutyl-6-(difluoromethoxy)-1H-indol-2-yl]pyridine-3-sulfonamide]
other
  melting point: 178 to 180 °C

## N#Cc1c(-c2ccc(S(N)(=O)=O)cn2)n(C2CCC2)c2cc(OC(F)F)ccc12 [compound 552, 6-[3-cyano-1-cyclobutyl-6-(difluoromethoxy)-1H-indol-2-yl]pyridine-3-sulfonamide]
other
  melting point: 204 to 205 °C

## C[C@H](NS(=O)(=O)c1ccc(-c2c(C(N)=O)c3cc(F)c(C4CC4)cc3n2C2CCCC2)nc1)C(F)(F)F [compound 842, 1-cyclopentyl-6-cyclopropyl-5-fluoro-2-(5-{[(2S)-1,1,1-trifluoropropan-2-yl]sulfamoyl}pyridin-2-yl)-1H-indole-3-carboxamide]
other
  melting point: 255 to 257 °C
